Data from article PMC11876601 (Molecular Systems Biology, 2025).
Read-outs that look alike come from different tables or passages of the source.

Tested on: Suit2-07 cells
Assay: Cell proliferation assay, GEM + ATR inhibitor (Incucyte confluence, 72 h);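 also: Suit2-07 cells grown in 96-well plates at 37 °C, 5% CO2, raw 72 h confluence taken without normalizing to starting confluence, each experiment done in triplicate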
Format: cell-based, human
Conditions: Suit2-07; for EC50: Homo sapiens, 72 h; for Ratio: Response to Response vehicle (mean); for Ratio / Response: R1; for Curve bottom / Curve top: plateau of fitted curve, ratio drug/vehicle confluence
[1] = GEM+ATRi_dose3, GEM 30 nM + ATRi 30 nM
[2] = experiment ATRi (ATR inhibitor alone)

Method: Cells were seeded at 5000 cells/well into 96-well flat bottom plates (Eppendorf) and allowed to attach overnight. […] Cells were incubated for 72 h at 37 °C and 5% CO2. Cell confluence readouts at 72 h were either normalized to their initial confluence using the Incucyte software (AsPC-1) or used without prior normalization (all others). […] Each experiment was performed in triplicates, the data was plotted as mean ± standard deviation (s.d.).

Q: How did the EC50 (experiment ATRi (ATR inhibitor alone), -log10 of EC50 [M], read-out: pEC50 (converted)) turn out when `Nc1nn2cc(F)cnc2c1C(=O)Nc1cncc(F)c1N1CCC(C(=O)N2CCN(C3COC3)CC2)CC1` [Gartisertib] was run?
A: The EC50 was 3.39e-07 M.

Q: And the EC50 (experiment ATRi (ATR inhibitor alone), mean (one replicate), read-out: EC50 mean)?
A: Its EC50 is 3.39e-07 M.

Q: And the EC50 (experiment ATRi (ATR inhibitor alone), replicate R1, read-out: EC50)?
A: The EC50 was 3.39e-07 M.

Q: And the Ratio (GEM+ATRi_dose1, GEM 0 nM + ATRi 10 nM)?
A: The Ratio was 1.02.

Q: And the Ratio (GEM+ATRi_dose1, GEM 1 nM + ATRi 10 nM)?
A: The Ratio was 1.01.

Q: What about the Ratio (GEM+ATRi_dose1, GEM 3 nM + ATRi 10 nM) of the same compound?
A: The Ratio was 0.93.

Q: What about the Ratio (GEM+ATRi_dose1, GEM 10 nM + ATRi 10 nM) of the same compound?
A: Its Ratio is 0.23.

Q: What about the Ratio (GEM+ATRi_dose1, GEM 30 nM + ATRi 10 nM) of the same compound?
A: The Ratio was 0.15.

Q: What about the Ratio (GEM+ATRi_dose1, GEM 100 nM + ATRi 10 nM) of the same compound?
A: The Ratio was 0.15.

Q: And the Ratio (GEM+ATRi_dose1, GEM 300 nM + ATRi 10 nM)?
A: Its Ratio is 0.12.

Q: And the Ratio (GEM+ATRi_dose1, GEM 1000 nM + ATRi 10 nM)?
A: Its Ratio is 0.11.

Q: And the Ratio (GEM+ATRi_dose1, GEM 3000 nM + ATRi 10 nM)?
A: The Ratio was 0.09.

Q: What about the Ratio (GEM+ATRi_dose2, GEM 0 nM + ATRi 3 nM) of the same compound?
A: The Ratio was 0.98.

Q: And the Ratio (GEM+ATRi_dose2, GEM 1 nM + ATRi 3 nM)?
A: The Ratio was 0.98.

Q: What about the Ratio (GEM+ATRi_dose2, GEM 3 nM + ATRi 3 nM) of the same compound?
A: Its Ratio is 0.26.

Q: What about the Ratio (GEM+ATRi_dose2, GEM 10 nM + ATRi 3 nM) of the same compound?
A: The Ratio was 0.16.

Q: What about the Ratio (GEM+ATRi_dose2, GEM 30 nM + ATRi 3 nM) of the same compound?
A: Its Ratio is 0.13.

Q: What about the Ratio (GEM+ATRi_dose2, GEM 100 nM + ATRi 3 nM) of the same compound?
A: Its Ratio is 0.13.

Q: What about the Ratio (GEM+ATRi_dose2, GEM 300 nM + ATRi 3 nM) of the same compound?
A: The Ratio was 0.11.

Q: And the Ratio (GEM+ATRi_dose2, GEM 1000 nM + ATRi 3 nM)?
A: Its Ratio is 0.11.

Q: What about the Ratio (GEM+ATRi_dose2, GEM 3000 nM + ATRi 3 nM) of the same compound?
A: The Ratio was 0.09.

Q: And the Ratio (GEM+ATRi_dose3, GEM 0 nM + ATRi 30 nM)?
A: The Ratio was 0.97.

Q: What about the Ratio (GEM+ATRi_dose3, GEM 1 nM + ATRi 30 nM) of the same compound?
A: The Ratio was 0.93.

Q: And the Ratio (GEM+ATRi_dose3, GEM 3 nM + ATRi 30 nM)?
A: The Ratio was 0.37.

Q: What about the Ratio (GEM+ATRi_dose3, GEM 10 nM + ATRi 30 nM) of the same compound?
A: Its Ratio is 0.18.

Q: What about the Ratio [1] of the same compound?
A: The Ratio was 0.14.

Q: What about the Ratio (GEM+ATRi_dose3, GEM 100 nM + ATRi 30 nM) of the same compound?
A: Its Ratio is 0.13.

Q: And the Ratio (GEM+ATRi_dose3, GEM 300 nM + ATRi 30 nM)?
A: Its Ratio is 0.12.

Q: And the Ratio (GEM+ATRi_dose3, GEM 1000 nM + ATRi 30 nM)?
A: The Ratio was 0.13.

Q: What about the Ratio (GEM+ATRi_dose3, GEM 3000 nM + ATRi 30 nM) of the same compound?
A: Its Ratio is 0.08.

Q: And the Ratio (experiment ATRi, ATRi 3 nM, GEM 0 nM)?
A: The Ratio was 1.02.

Q: What about the Ratio (experiment ATRi, ATRi 10 nM, GEM 0 nM) of the same compound?
A: Its Ratio is 1.01.

Q: What about the Ratio (experiment ATRi, ATRi 30 nM, GEM 0 nM) of the same compound?
A: Its Ratio is 0.98.

Q: And the Ratio (experiment ATRi, ATRi 100 nM, GEM 0 nM)?
A: Its Ratio is 0.96.

Q: And the Ratio (experiment ATRi, ATRi 300 nM, GEM 0 nM)?
A: Its Ratio is 0.63.

Q: What about the Ratio (experiment ATRi, ATRi 1000 nM, GEM 0 nM) of the same compound?
A: Its Ratio is 0.22.

Q: What about the Ratio (experiment ATRi, ATRi 3000 nM, GEM 0 nM) of the same compound?
A: Its Ratio is 0.19.

Q: What about the Ratio (experiment ATRi, ATRi 10000 nM, GEM 0 nM) of the same compound?
A: The Ratio was 0.12.

Q: What about the Response (GEM+ATRi_dose1, GEM 0 nM + ATRi 10 nM, in % (unit assumed)) of the same compound?
A: Its Response is 99.22.

Q: And the Response (GEM+ATRi_dose1, GEM 1 nM + ATRi 10 nM, in % (unit assumed))?
A: The Response was 98.36.

Q: And the Response (GEM+ATRi_dose1, GEM 3 nM + ATRi 10 nM, in % (unit assumed))?
A: The Response was 90.74.

Q: And the Response (GEM+ATRi_dose1, GEM 10 nM + ATRi 10 nM, in % (unit assumed))?
A: Its Response is 21.98.

Q: And the Response (GEM+ATRi_dose1, GEM 30 nM + ATRi 10 nM, in % (unit assumed))?
A: The Response was 14.67.

Q: And the Response (GEM+ATRi_dose1, GEM 100 nM + ATRi 10 nM, in % (unit assumed))?
A: Its Response is 14.71.

Q: What about the Response (GEM+ATRi_dose1, GEM 300 nM + ATRi 10 nM, in % (unit assumed)) of the same compound?
A: Its Response is 11.45.

Q: And the Response (GEM+ATRi_dose1, GEM 1000 nM + ATRi 10 nM, in % (unit assumed))?
A: Its Response is 10.53.

Q: What about the Response (GEM+ATRi_dose1, GEM 3000 nM + ATRi 10 nM, in % (unit assumed)) of the same compound?
A: The Response was 8.70.

Q: What about the Response (GEM+ATRi_dose2, GEM 0 nM + ATRi 3 nM, in % (unit assumed)) of the same compound?
A: The Response was 95.38.

Q: What about the Response (GEM+ATRi_dose2, GEM 1 nM + ATRi 3 nM, in % (unit assumed)) of the same compound?
A: Its Response is 96.21.

Q: And the Response (GEM+ATRi_dose2, GEM 3 nM + ATRi 3 nM, in % (unit assumed))?
A: The Response was 25.36.

Q: And the Response (GEM+ATRi_dose2, GEM 10 nM + ATRi 3 nM, in % (unit assumed))?
A: Its Response is 15.98.

Q: And the Response (GEM+ATRi_dose2, GEM 30 nM + ATRi 3 nM, in % (unit assumed))?
A: The Response was 13.06.

Q: And the Response (GEM+ATRi_dose2, GEM 100 nM + ATRi 3 nM, in % (unit assumed))?
A: The Response was 13.09.

Q: What about the Response (GEM+ATRi_dose2, GEM 300 nM + ATRi 3 nM, in % (unit assumed)) of the same compound?
A: The Response was 10.34.

Q: And the Response (GEM+ATRi_dose2, GEM 1000 nM + ATRi 3 nM, in % (unit assumed))?
A: The Response was 10.34.

Q: And the Response (GEM+ATRi_dose2, GEM 3000 nM + ATRi 3 nM, in % (unit assumed))?
A: The Response was 9.00.

Q: And the Response (GEM+ATRi_dose3, GEM 0 nM + ATRi 30 nM, in % (unit assumed))?
A: Its Response is 94.90.

Q: What about the Response (GEM+ATRi_dose3, GEM 1 nM + ATRi 30 nM, in % (unit assumed)) of the same compound?
A: The Response was 91.25.

Q: What about the Response (GEM+ATRi_dose3, GEM 3 nM + ATRi 30 nM, in % (unit assumed)) of the same compound?
A: Its Response is 36.47.

Q: What about the Response (GEM+ATRi_dose3, GEM 10 nM + ATRi 30 nM, in % (unit assumed)) of the same compound?
A: Its Response is 17.41.

Q: And the Response [1]?
A: Its Response is 13.78.

Q: And the Response (GEM+ATRi_dose3, GEM 100 nM + ATRi 30 nM, in % (unit assumed))?
A: The Response was 12.30.

Q: And the Response (GEM+ATRi_dose3, GEM 300 nM + ATRi 30 nM, in % (unit assumed))?
A: Its Response is 12.12.

Q: What about the Response (GEM+ATRi_dose3, GEM 1000 nM + ATRi 30 nM, in % (unit assumed)) of the same compound?
A: Its Response is 12.34.

Q: What about the Response (GEM+ATRi_dose3, GEM 3000 nM + ATRi 30 nM, in % (unit assumed)) of the same compound?
A: The Response was 7.88.

Q: And the Curve bottom [2]?
A: Its Curve bottom is 1.01.

Q: What about the Curve top [2] of the same compound?
A: The Curve top was 0.15.

Q: What about the Response (experiment ATRi, ATRi 3 nM, GEM 0 nM, in % (unit assumed)) of the same compound?
A: Its Response is 99.33.

Q: And the Response (experiment ATRi, ATRi 10 nM, GEM 0 nM, in % (unit assumed))?
A: The Response was 98.82.

Q: What about the Response (experiment ATRi, ATRi 30 nM, GEM 0 nM, in % (unit assumed)) of the same compound?
A: The Response was 95.35.

Q: What about the Response (experiment ATRi, ATRi 100 nM, GEM 0 nM, in % (unit assumed)) of the same compound?
A: Its Response is 93.53.

Q: And the Response (experiment ATRi, ATRi 300 nM, GEM 0 nM, in % (unit assumed))?
A: Its Response is 61.81.

Q: And the Response (experiment ATRi, ATRi 1000 nM, GEM 0 nM, in % (unit assumed))?
A: The Response was 21.20.

Q: And the Response (experiment ATRi, ATRi 3000 nM, GEM 0 nM, in % (unit assumed))?
A: Its Response is 18.17.

Q: What about the Response (experiment ATRi, ATRi 10000 nM, GEM 0 nM, in % (unit assumed)) of the same compound?
A: Its Response is 11.75.

Q: And the Curve bottom (experiment GEM+ATRi_dose1)?
A: The Curve bottom was 1.01.

Q: What about the Curve top (experiment GEM+ATRi_dose1) of the same compound?
A: Its Curve top is 0.12.

Q: And the Curve bottom (experiment GEM+ATRi_dose2)?
A: Its Curve bottom is 0.98.

Q: And the Curve top (experiment GEM+ATRi_dose2)?
A: The Curve top was 0.12.

Q: What about the Curve bottom (experiment GEM+ATRi_dose3) of the same compound?
A: Its Curve bottom is 0.98.

Q: What about the Curve top (experiment GEM+ATRi_dose3) of the same compound?
A: The Curve top was 0.13.
